# Laboratory results taken from patent US10226453B2, “3-(1H-indol-2-yl)-1H-pyrazolo[4,3-B]pyridines and therapeutic uses thereof” (Samumed, LLC, priority 2015, dated 2019).
# Legend:
# [1] = system: primary human mesenchymal stem cells (hMSCs); experiment: Induction of chondrogenesis in primary human mesenchymal stem cells (hMSCs), nodule count; format: cell-based; details: 144 h, 6 days; for EC50: concentration required to induce 50% levels of chondrogenesis of TGF-β3 control, read-out: Conc (nM) of 50% TGF-β3 activity; for Emax: relative to TGF-β3 (10 ng/mL) positive control, read-out: Max. Activity as % TGF-β3 activity
# Description: Representative compounds were screened using primary human mesenchymal stem cells (hMSCs) to determine their ability to induce chondrogenesis (process by which cartilage is developed).
# Primary human mesenchymal stem cells (hMSCs) were purchased from Lonza (Walkersville, Md.) and expanded in Mesenchymal Stem Cell Growth Media (Lonza). Cells between passage 3 and 6 were used for the experiments.
# Each compound was dissolved in DMSO as a 10 mM stock and used to prepare compound source plates. Serial dilution (1:3, 6-point dose-response curves from 2700 nM to 10 nM) and compound transfer was performed using the ECHO 550 (Labcyte, Sunnyvale, Calif.) into 96-well clear bottom assay plates (Greiner Bio-One) with appropriate DMSO backfill for a final DMSO concentration of 0.03%. hMSCs were plated at 20,000 cells/well in 250 μL/well Incomplete Chondrogenic Induction Medium (Lonza; DMEM, dexamethasone, ascorbate, insulin-transferrin-selenium [ITS supplement], gentamycin-amphotericin [GA-1000], sodium pyruvate, proline and L-glutamine). TGF-β3 (10 ng/mL) was used as a positive control for differentiation while negative control wells were treated with 75 nL DMSO for normalization and calculating EC50 values. Cells were incubated at 37° C. and 5% CO2 for 6 days. To image chondrogenic nodules, the cells were fixed using 4% formaldehyde (Electron Microscopy Sciences), and stained with 2 μg/mL Rhodamine B (Sigma-Aldrich) and 20 μM Nile Red (Sigma-Aldrich) [Johnson K., et. al, A Stem Cell-Based Approach to Cartilage Repair, Science, (2012). 336(6082), 717-721]. The nodules imaged (4 images per well at 4× magnification) by excitation at 531 nm and emission at 625 nm and quantified using the CellInsight CX5 (Thermo Scientific). Number of nodules in each well was normalized to the average of 3 DMSO treated wells on the same plate using Excel (Microsoft Inc.). The normalized averages (fold change over DMSO) of 3 replicate wells for each compound concentration were calculated. Due to solubility limitations of some of the compounds, curve fitting was incomplete leading to inaccurate EC50 determinations.
# Using TGF-β3 as a positive control, the concentration of representative compounds required to induce 50% levels of chondrogenesis is reported. In addition, the maximum activity of each compound and the respective dose that each compound reached maximum chondrogenesis activity is reported.
# IL-6 (THP-1 cells) = experiment: IL-6 inhibition in LPS-stimulated THP-1 human monocyte cells (HTRF); format: cell-based; details: LPS 500 ng/mL; for EC50: 22 hours, IL6 HTRF; for inhibition at 10 µM: given where EC50 >10 μM, read-out: percent inhibition at 10 μM
# How it was run: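 Readout is the 665/620 nm HTRF ratio for secreted IL-6, normalized to DMSO wells, with EC50 from a variable-slope four-parameter fit, or % inhibition at 10 μM when above 10 μM. Cells (1% FBS, 24 h beforehand) got compound for 2 h, then LPS 500 ng/mL for 22 h at 37° C; top dose 10 μM, 0.1% DMSO.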
EC50 [1],EC50 (IL-6 (THP-1 cells)),SMILES,Emax [1],inhibition at 10 µM (IL-6 (THP-1 cells))
10 nM,306 nM,"FC1(F)CCN(Cc2cncc(-c3ccc4[nH]nc(-c5cc6c(-c7ccccn7)cccc6[nH]5)c4n3)c2)C1 [Compound 166, 5-(5-((3,3-Difluoropyrrolidin-1-yl)methyl)pyridin-3-yl)-3-(4-(pyridin-2-yl)-1H-indol-2-yl)-1H-pyrazolo[4,3-b]pyridine]",82%,
,> 10000 nM,"c1cc(-c2ccoc2)c2cc(-c3n[nH]c4ccc(-c5cncc(OC6CCCCC6)c5)nc34)[nH]c2c1 [Compound 715, 5-(5-(Cyclohexyloxy)pyridin-3-yl)-3-(4-(furan-3-yl)-1H-indol-2-yl)-1H-pyrazolo[4,3-b]pyridine]",,36.2%
,6730 nM,"Fc1ccccc1-c1cccc2[nH]c(-c3n[nH]c4ccc(-c5cncc(CNCc6ccccc6)c5)nc34)cc12 [Compound 80, N-Benzyl-1-(5-(3-(4-(2-fluorophenyl)-1H-indol-2-yl)-1H-pyrazolo[4,3-b]pyridin-5-yl)pyridin-3-yl)methanamine]",,
900 nM,52 nM,"Nc1cncc(-c2ccc3[nH]nc(-c4cc5c(-c6ccncc6)cccc5[nH]4)c3n2)c1 [Compound 115, 5-(3-(4-(Pyridin-4-yl)-1H-indol-2-yl)-1H-pyrazolo[4,3-b]pyridin-5-yl) pyridin-3-amine]",165%,
,103 nM,"Fc1ccc(-c2cccc3[nH]c(-c4n[nH]c5ccc(-c6cncnc6)nc45)cc23)cc1 [Compound 55, 3-(4-(4-Fluorophenyl)-1H-indol-2-yl)-5-(pyrimidin-5-yl)-1H-pyrazolo[4,3-b] pyridine]",,
,3570 nM,"c1cc(-c2ccoc2)c2cc(-c3n[nH]c4ccc(-c5cncc(CNCC6CCCC6)c5)nc34)[nH]c2c1 [Compound 333, 1-Cyclopentyl-N-((5-(3-(4-(furan-3-yl)-1H-indol-2-yl)-1H-pyrazolo[4,3-b]pyridin-5-yl)pyridin-3-yl)methyl)methanamine]",25%,
,1980 nM,"c1cc(N2CCCCC2)c2cc(-c3n[nH]c4ccc(-c5cncc(OC6CCNCC6)c5)nc34)[nH]c2c1 [Compound 636, 3-(4-(Piperidin-1-yl)-1H-indol-2-yl)-5-(5-(piperidin-4-yloxy)pyridin-3-yl)-1H-pyrazolo[4,3-b]pyridine]",34%,
,2910 nM,"Fc1cccc(-c2cccc3[nH]c(-c4n[nH]c5ccc(-c6cncc(OCc7ccccc7)c6)nc45)cc23)c1 [Compound 546, 5-(5-(Benzyloxy)pyridin-3-yl)-3-(4-(3-fluorophenyl)-1H-indol-2-yl)-1H-pyrazolo[4,3-b]pyridine]",,
10 nM,549 nM,"CN(C)Cc1cncc(-c2ccc3[nH]nc(-c4cc5c(-c6ccc(F)cc6)cccc5[nH]4)c3n2)c1 [Compound 41, 1-(5-(3-(4-(4-Fluorophenyl)-1H-indol-2-yl)-1H-pyrazolo[4,3-b]pyridin-5-yl)pyridin-3-yl)-N,N-dimethylmethanamine]",93%,
,249 nM,"c1ccc(-c2ccc3[nH]nc(-c4cc5c(-c6ccncc6)cccc5[nH]4)c3n2)nc1 [Compound 140, 5-(Pyridin-2-yl)-3-(4-(pyridin-4-yl)-1H-indol-2-yl)-1H-pyrazolo[4,3-b] pyridine]",,
,8 nM,"Nc1cncc(-c2ccc3[nH]nc(-c4cc5ncccc5[nH]4)c3n2)c1 [Compound 507, 5-(3-(1H-Pyrrolo[3,2-b]pyridin-2-yl)-1H-pyrazolo[4,3-b]pyridin-5-yl) pyridin-3-amine]",,
,> 10000 nM,"c1cnc2cc(-c3n[nH]c4ccc(-c5cn[nH]c5)nc34)[nH]c2c1 [Compound 1021, 5-(1H-Pyrazol-4-yl)-3-(1H-pyrrolo[3,2-b]pyridin-2-yl)-1H-pyrazolo[4,3-b] pyridine]",,0%
100 nM,751 nM,"CN1CCN(c2cccc3[nH]c(-c4n[nH]c5ccc(-c6cncnc6)nc45)cc23)CC1 [Compound 251, 3-(4-(4-Methylpiperazin-1l-yl)-1H-indol-2-yl)-5-(pyrimidin-5-yl)-1H-pyrazolo[4,3-b]pyridine]",67%,
100 nM,271 nM,"Fc1ccccc1-c1cccc2[nH]c(-c3n[nH]c4ccc(-c5cncc(CN6CCCCC6)c5)nc34)cc12 [Compound 71, 3-(4-(2-Fluorophenyl)-1H-indol-2-yl)-5-(5-(piperidin-1-ylmethyl)pyridin-3-yl)-1H-pyrazolo[4,3-b]pyridine]",96%,
900 nM,21 nM,"Cc1ccncc1-c1ccc2[nH]nc(-c3cc4c(-c5ccncc5)cccc4[nH]3)c2n1 [Compound 117, 5-(4-Methylpyridin-3-yl)-3-(4-(pyridin-4-yl)-1H-indol-2-yl)-1H-pyrazolo [4,3-b]pyridine]",703%,
10 nM,1280 nM,"Cc1ccncc1-c1ccc2[nH]nc(-c3cc4c(N5CCN(C)CC5)cccc4[nH]3)c2n1 [Compound 229, 3-(4-(4-Methylpiperazin-1-yl)-1H-indol-2-yl)-5-(4-methylpyridin-3-yl)-1H-pyrazolo[4,3-b]pyridine]",63%,
,2720 nM,"CC(C)(C)C(=O)Nc1cncc(-c2ccc3[nH]nc(-c4cc5c(-c6cccc(F)c6)cccc5[nH]4)c3n2)c1 [Compound 8, N-(5-(3-(4-(3-Fluorophenyl)-1H-indol-2-yl)-1H-pyrazolo[4,3-b]pyridin-5-yl)pyridin-3-yl)pivalamide]",,
,13 nM,"c1cncc(-c2ccc3[nH]nc(-c4cc5ccccc5[nH]4)c3n2)c1 [Compound 256, 3-(1H-Indol-2-yl)-5-(pyridin-3-yl)-1H-pyrazolo[4,3-b]pyridine]",,
,347 nM,"Oc1cncc(-c2ccc3[nH]nc(-c4cc5c(-c6cccs6)cccc5[nH]4)c3n2)c1 [Compound 737, 5-(3-(4-(Thiophen-2-yl)-1H-indol-2-yl)-1H-pyrazolo[4,3-b]pyridin-5-yl) pyridin-3-ol]",,
,3240 nM,"c1cc(-c2ccncc2)c2cc(-c3n[nH]c4ccc(-c5cncc(CNCC6CCCC6)c5)nc34)[nH]c2c1 [Compound 137, 1-Cyclopentyl-N-((5-(3-(4-(pyridin-4-yl)-1H-indol-2-yl)-1H-pyrazolo[4,3-b]pyridin-5-yl)pyridin-3-yl)methyl)methanamine]",,
,91 nM,"Oc1cncc(-c2ccc3[nH]nc(-c4cc5ncccc5[nH]4)c3n2)c1 [Compound 1031, 5-(3-(1H-Pyrrolo[3,2-b]pyridin-2-yl)-1H-pyrazolo[4,3-b]pyridin-5-yl) pyridin-3-ol]",,
,72 nM,"c1cc(-c2ccoc2)c2cc(-c3n[nH]c4ccc(-c5cn[nH]c5)nc34)[nH]c2c1 [Compound 711, 3-(4-(Furan-3-yl)-1H-indol-2-yl)-5-(1H-pyrazol-4-yl)-1H-pyrazolo[4,3-b] pyridine]",,
,1860 nM,"c1ccc(-c2ccc3[nH]nc(-c4cc5c(N6CCCCC6)cccc5[nH]4)c3n2)nc1 [Compound 196, 3-(4-(Piperidin-1-yl)-1H-indol-2-yl)-5-(pyridin-2-yl)-1H-pyrazolo[4,3-b] pyridine]",,
,6340 nM,"FC1(F)CCN(Cc2cncc(-c3ccc4[nH]nc(-c5cc6c(-c7cccs7)cccc6[nH]5)c4n3)c2)C1 [Compound 362, 5-(5-((3,3-Difluoropyrrolidin-1-yl)methyl)pyridin-3-yl)-3-(4-(thiophen-2-yl)-1H-indol-2-yl)-1H-pyrazolo[4,3-b]pyridine]",,
